Data set [1] deals with Human B lymphoblastoid cells (Jiyoye). Kind of data set: Cell based Lip10 assay (lip10 accumulation, anti-CD74 ELISA). The note with it: 24 hours, relative to E64d/LHVS-treated cells, read-out: pEC50 (negative logarithm of the EC50 concentration), lip10 assay (converted). As to the method: Human B lymphoblastoid cells (Jiyoye) were cultured in RPMI 1640 medium at a density of 500 000 cells/ml in 24-well plates. Cells were treated with a concentration range of compounds (0.001-10 μM) and vehicle alone (DMSO, 0.1% v/v). In order to generate positive control treatments separate wells were treated with 10 μM E64d & 0.1 μM LHVS. The cells were incubated at 37° C. in a humidified incubator containing 5% CO2. After 24 hours the plates were centrifuged at 150×g for five minutes and the media removed. Cells were lysed by adding 65 ul of ice-cold phosphate buffered saline (PBS) containing 1% (v/v) Triton X-100 and protease inhibitors and incubated on ice for 20 minutes. The samples were centrifuged at 18 000×g for 15 minutes at 4° C. and the resulting supernatants collected and stored at −80° C. until required. After measurement of protein concentration using a micro-BCA protein assay all samples were diluted to […] and 50 l of each sample were coated overnight at 4° C. onto wells of high protein-binding 96-well plates. The wells were washed once with PBS (200 l/well) and then incubated at room temperature for 2 hours with 10 μg/ml mouse anti-CD74 Pin.1 monoclonal antibody (50 l/well) in PBS containing 0.05% (v/v) Tween-20 (PBS-T) and 2% (w/v) BSA (PBS-T/BSA). Unbound antibody was then removed by washing three times with PBS-T and followed by the addition of rabbit anti-mouse IgG antibody conjugated to horseradish peroxidase. After washing five times with PBS-T 100 μl of tetramethylbenzidine substrate was added to each well and incubated for 10 minutes on a plate shaker. The reaction was stopped by the addition of 100 μl of 1M hydrochloric acid. Antibody binding was quantified by measuring the optical density (OD, 450 nm) using a Molecular Devices Spectramax Plus. The OD of vehicle-only treated cells was removed from all values and the data was expressed as a percentage of the OD generated from the mean E64d/LHVS-treated cells. The potency of compounds (EC50) was measured by calculating the concentration of inhibitor required to generate 50% inhibition relative to E64d/LHVS-treated cells.
On the technique in general: ELISA stands for enzyme-linked immunosorbent assay.

Data set [2] concerns the target recombinant human Cathepsin S (Homo sapiens (Human), UniProt P25774). Description: Cathepsin S assay procedure (fluorogenic substrate Z-Val-Val-Arg-AMC). Format: biochemical. As to the method:
25 μl of a 2 mg/l solution of activated recombinant human cathepsin S, in assay buffer, is then added to the well, yielding a final inhibitor concentration of 10 μM.
Enzyme activity is determined by measuring the fluorescence of the liberated aminomethylcoumarin at […] using 390 nm excitation, at 20 minutes. Percentage enzyme activity is calculated by comparison of this activity to that of a solution containing no inhibitor.

The next data set is described as follows: Rat oral bioavailability. The note with it: Sprague-Dawley, in vivo, SD rat, read-out: Bioavailability F.
Setting [3] is: read-out: pIC50 (negative logarithm of the IC50 concentration) for inhibition of human cathepsin S (converted).
Setting [4] is: pH5.5, fluorescence at 20 minutes, read-out: Cat S activity IC50.

Where a name gives a salt, the structure may show the parent alone. Read-outs that look alike come from different tables or passages of the source.

Broadly, the bioavailability is dose-corrected exposure relative to a reference, in per cent.

recombinant human Cathepsin S, sequence (P25774 115-331): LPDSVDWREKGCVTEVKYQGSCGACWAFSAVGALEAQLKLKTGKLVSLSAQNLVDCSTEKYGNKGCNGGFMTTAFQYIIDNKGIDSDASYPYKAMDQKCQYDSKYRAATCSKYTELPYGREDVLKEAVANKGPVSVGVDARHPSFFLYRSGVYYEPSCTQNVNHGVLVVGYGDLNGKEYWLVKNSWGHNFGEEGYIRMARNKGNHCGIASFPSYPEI

For `CN(C)C(=O)CN1CCN(CCOc2ccc(-c3cc4c(nnn4C)c(C#N)n3)cc2C(F)(F)F)CC1` [Example 37g, 2-(4-(2-(4-(4-cyano-1-methyl-1H-[1,2,3]triazolo[4,5-c]pyridin-6-yl)-2-(trifluoromethyl)phenoxy)ethyl)piperazin-1-yl)-N,N-dimethylacetamide dihydrochloride], in data set [1], the EC50 is under 100 nM.
Regarding `Cn1nnc2c(C#N)nc(-c3ccc(OCCC4CCN(Cc5ncco5)CC4)c(C(F)(F)F)c3)cc21` [Example 3a, 1-methyl-6-(4-(2-(1-(oxazol-2-ylmethyl)piperidin-4-yl)ethoxy)-3-(trifluoromethyl)phenyl)-1H-[1,2,3]triazolo[4,5-c]pyridine-4-carbonitrile], in data set [1], the EC50 is under 100 nM. The IC50 in data set [2] (setting [3]) was under 10 nM.
As for `Cn1nnc2c(C#N)nc(-c3ccc(OCCC4CCN(CC(C)(C)O)CC4)c(C(F)(F)F)c3)cc21` [Example 2d, 6-(4-(2-(1-(2-hydroxy-2-methylpropyl)piperidin-4-yl)ethoxy)-3-(trifluoromethyl)phenyl)-1-methyl-1H-[1,2,3]triazolo-[4,5-c]pyridine-4-carbonitrile hydrochloride], the EC50 in data set [1] was under 100 nM. Further, in data set [2] (setting [3]), the IC50 was under 10 nM.
`CCN(CC)CCCOc1ccc(-c2cc3c(nnn3C)c(C#N)n2)cc1C(F)(F)F` [Example 36q, 6-(4-(3-(diethylamino)propoxy)-3-(trifluoromethyl)phenyl)-1-methyl-1H-[1,2,3]triazolo[4,5-c]pyridine-4-carbonitrile]: the IC50 in data set [2] (setting [3]) was under 10 nM.
For `CN(C)C(=O)CN1CCC(CCOc2ccc(-c3cc4c(ncn4C)c(C#N)n3)cc2C(F)(F)F)CC1.Cl` [EP 09150709.5 - Example 14d, reference compound], in data set [2] (setting [4]), the IC50 turned out to be 8.3 nM. The bioavailability in “Rat oral bioavailability” came to 9%.
In the case of `Cn1nnc2c(C#N)nc(-c3ccc(OCCN4CCN(CCO)CC4)c(C(F)(F)F)c3)cc21` [Example 37e, 6-(4-(2-(4-(2-hydroxyethyl)piperazin-1-yl)ethoxy)-3-(trifluoromethyl)phenyl)-1-methyl-1H-[1,2,3]triazolo[4,5-c]pyridine-4-carbonitrile], in data set [2] (setting [3]), the IC50 was under 10 nM.
Turning to `Cn1nnc2c(C#N)nc(-c3ccc(OCCC4CCN(CC(N)=O)CC4)c(C(F)(F)F)c3)cc21` [Example 2c, 6-(4-(2-(1-(2-amino-2-oxoethyl)piperidin-4-yl)ethoxy)-3-(trifluoromethyl)phenyl)-1-methyl-1H-[1,2,3]triazolo[4,5-c]pyridine-4-carbonitrile], in data set [2] (setting [3]), the IC50 is under 10 nM.
The same measure, in the same setting: as for `Cn1nnc2c(C#N)nc(-c3ccc(OCc4cc[n+]([O-])cc4)c(C(F)(F)F)c3)cc21` [Example 25, methyl-6-(4-(1-N-oxy-pyridin-4-ylmethoxy)-3-(trifluoromethyl)phenyl)-1H-[1,2,3]triazolo[4,5-c]pyridine-4-carbonitrile], the figure is under 10 nM.
As for `Cn1nnc2c(C#N)nc(-c3ccc(OCCC4CCNCC4)c(C(F)(F)F)c3)cc21` [Example 1, 1-methyl-6-(4-(2-(piperidin-4-yl)ethoxy)-3-(trifluoromethyl)phenyl)-1H-[1,2,3]triazolo[4,5-c]pyridine-4-carbonitrile], the IC50 in data set [2] (setting [4]) was 0.8 nM; in data set [2] (setting [3]) it was under 10 nM.
`CNC(=O)CN1CCN(CCCOc2ccc(-c3cc4c(nnn4C)c(C#N)n3)cc2C(F)(F)F)CC1` [Example 36v, 2-(4-(3-(4-(4-cyano-1-methyl-1H-[1,2,3]triazolo[4,5-c]pyridin-6-yl)-2-(trifluoromethyl)phenoxy)propyl)piperazin-1-yl)-N-methylacetamide dihydrochloride]: the IC50 in data set [2] (setting [3]) is under 10 nM.
On the same count and under the same terms, the figure for `COC(=O)[C@@H](O)CN1CCC(CCOc2ccc(-c3cc4c(nnn4C)c(C#N)n3)cc2C(F)(F)F)CC1` [Example 39, (S)-methyl 3-(4-(2-(4-(4-cyano-1-methyl-1H-[1,2,3]triazolo[4,5-c]pyridin-6-yl)-2-(trifluoromethyl)phenoxy)ethyl)piperidin-1-yl)-2-hydroxypropanoate] is under 10 nM; for `Cn1nnc2c(C#N)nc(-c3ccc(OCCC4CCN(Cc5ncno5)CC4)c(C(F)(F)F)c3)cc21` [Example 3k, 6-(4-(2-(1-((1,2,4-oxadiazol-5-yl)methyl)piperidin-4-yl)ethoxy)-3-(trifluoromethyl)phenyl)-1-methyl-1H-[1,2,3]triazolo[4,5-c]pyridine-4-carbonitrile] it is under 10 nM.
With `Cn1nnc2c(C#N)nc(-c3ccc(OCCC4CCN(CCS(C)(=O)=O)CC4)c(C(F)(F)F)c3)cc21` [Example 19, 1-methyl-6-(4-(2-(1-(2-(methylsulfonyl)ethyl)piperidin-4-yl)ethoxy)-3-(trifluoromethyl)phenyl)-1H-[1,2,3]triazolo[4,5-d]pyridine-4-carbonitrile], the IC50 in data set [2] (setting [3]) is under 10 nM.
As for `Cn1cnc2c(C#N)nc(-c3ccc(CCCO)c(C(F)(F)F)c3)cc21` [WO 2009/010491, Example 15, reference compound], the IC50 in data set [2] (setting [4]) came out at 234 nM.
`CN(C)C(=O)CN1CCC(CCOc2ccc(-c3cc4c(nnn4C)c(C#N)n3)cc2C(F)(F)F)CC1.Cl` [Example 2a, 6-(4-(2-(1-(2-dimethylamino-2-oxoethyl)piperidin-4-yl)ethoxy)-3-(trifluoromethyl)-phenyl)-1-methyl-1H-[1,2,3]triazolo[4,5-c]pyridine-4-carbonitrile hydrochloride]: in data set [1], the EC50 is under 100 nM. For the same compound, the IC50 in data set [2] (setting [4]) was 1.5 nM; in data set [2] (setting [3]), under 10 nM. The bioavailability in “Rat oral bioavailability” came to 42%.
As to `Cc1ccc(N2CC[C@@H](CCOc3ccc(-c4cc5c(nnn5C)c(C#N)n4)cc3C(F)(F)F)C2)nc1` [Example 9a, (S)-1-methyl-6-(4-(2-(1-(5-methylpyridin-2-yl)pyrrolidin-3-yl)ethoxy)-3-(trifluoromethyl)phenyl)-1H-[1,2,3]triazolo[4,5-c]pyridine-4-carbonitrile hydrochloride], the IC50 in data set [2] (setting [3]) is under 10 nM.
As for `CNC(=O)CN1CCC(CCOc2ccc(-c3cc4c(nnn4C)c(C#N)n3)cc2C(F)(F)F)CC1` [Example 2b, 1-methyl-6-(4-(2-(1-(2-methylamino-2-oxoethyl)piperidin-4-yl)ethoxy)-3-(trifluoromethyl)phenyl)-1H-[1,2,3]triazolo[4,5-c]pyridine-4-carbonitrile TFA salt], the IC50 in data set [2] (setting [3]) is under 10 nM.
As to `Cn1nnc2c(C#N)nc(-c3ccc(OCCC4CCN(C(=O)C5(N)CC5)CC4)c(C(F)(F)F)c3)cc21` [Example 29, 6-(4-(2-(1-(1-aminocyclopropanecarbonyl)piperidin-4-yl)ethoxy)-3-(trifluoromethyl)phenyl)-1-methyl-1H-[1,2,3]triazolo[4,5-d]pyridine-4-carbonitrile], in data set [2] (setting [3]), the IC50 is under 10 nM.
